From patent US20260285875A1, “INHIBITORS OF PARG” (858 Therapeutics, Inc., priority 2023, published 2026)

Biological target: T1, cellular PARG (Homo sapiens, UniProt Q86W56)
T1 construct: endogenous in cells; host or cells: HeLa
Experiment: Nuclear PAR accumulation assay (immunofluorescence high-content imaging, MMS-treated HeLa cells)
Format: cell-based
Details: 1 hour compound then MMS 50 μg/mL for an additional hour
Protocol: HeLa cells were plated at 15,000 cells/well in a 96-well plate the day before compound treatment and then treated with varying concentrations of test compound and incubated for 1 hour at 37° C.+5% CO2. Following test compound treatment, methylmethane sulfonate (MMS) was added to a final concentration of 50 μg/mL and the cells were incubated for an additional hour. Following treatment, the cells were fixed with ice cold 95% methanol and the plates sealed and placed at -20° C. for 15 minutes. The cells were then washed once with phosphate buffered saline (PBS) and permeabilized with 0.10% Triton-X 100 for 20 minutes at room temperature. […] The cells were then washed three times with PBS before incubation with a fluorescently conjugated goat anti-mouse antibody (Invitrogen A32723) diluted 1:500 in 5% FBS+0.1% Tween-20+PBS for 1 hour at room temperature. The cells were again washed three times with PBS and the nuclei labeled by incubating with 1 μg/mL DAPI (4′,6-diamidino-2-phenylindole). Nuclear PAR accumulation was evaluated using high-content fluorescence microscopy. Four fields for each well were acquired at 20× magnification resulting in at least 1,000 cells analyzed per well. […] Both the average intensity per nucleus and percent PAR positive cells were quantified. […] Concentration-response-curves and IC50 values were generated using four parameter logistic curve fit software.
Representative data for exemplary compounds is presented in Table 32, Table 33 and Table 34.

T1 sequence (Q86W56 whole entry): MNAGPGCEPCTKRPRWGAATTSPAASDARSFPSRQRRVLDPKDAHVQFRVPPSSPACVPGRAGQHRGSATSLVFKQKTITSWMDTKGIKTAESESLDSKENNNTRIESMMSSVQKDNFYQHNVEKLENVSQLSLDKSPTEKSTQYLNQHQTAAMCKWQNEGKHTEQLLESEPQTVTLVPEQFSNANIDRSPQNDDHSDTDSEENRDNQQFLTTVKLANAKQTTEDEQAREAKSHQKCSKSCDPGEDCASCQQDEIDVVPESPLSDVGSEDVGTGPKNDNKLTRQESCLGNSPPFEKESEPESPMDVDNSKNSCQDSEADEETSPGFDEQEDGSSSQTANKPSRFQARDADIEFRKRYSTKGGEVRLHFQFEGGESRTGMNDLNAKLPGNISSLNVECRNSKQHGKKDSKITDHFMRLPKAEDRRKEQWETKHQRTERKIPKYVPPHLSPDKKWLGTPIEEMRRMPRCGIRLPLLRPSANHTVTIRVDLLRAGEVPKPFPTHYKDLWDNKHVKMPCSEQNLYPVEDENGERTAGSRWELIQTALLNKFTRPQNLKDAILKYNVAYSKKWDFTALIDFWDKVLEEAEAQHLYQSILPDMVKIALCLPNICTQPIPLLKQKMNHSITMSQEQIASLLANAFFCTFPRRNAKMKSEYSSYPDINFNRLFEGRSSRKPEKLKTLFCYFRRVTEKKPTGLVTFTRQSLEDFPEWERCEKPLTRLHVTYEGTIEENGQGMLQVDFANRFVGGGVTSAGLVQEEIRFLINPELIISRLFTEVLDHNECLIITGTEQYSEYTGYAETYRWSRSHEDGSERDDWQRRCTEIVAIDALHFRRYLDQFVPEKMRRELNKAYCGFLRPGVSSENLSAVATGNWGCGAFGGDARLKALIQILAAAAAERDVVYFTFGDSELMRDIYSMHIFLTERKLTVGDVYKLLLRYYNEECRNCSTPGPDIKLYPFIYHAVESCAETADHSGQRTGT

SMILES | IC50 [nM]
C[C@@H]1CN=C2N(Cc3cnn(C)c3)C(=O)c3cc(S(=O)(=O)NC4(C)CC4)cc(N4CC[C@H](N)C4)c3N21 [Example 75, (R)-9-((S)-3-aminopyrrolidin-1-yl)-1-methyl-4-((1-methyl-1H-pyrazol-4-yl)methyl)-N-(1-methylcyclopropyl)-5-oxo-1,2,4,5-tetrahydroimidazo[1,2-a]quinazoline-7-sulfonamide] | 100 to 1000
Cc1ccc(C#CC2CN=C3N(C)C(=O)c4cc(S(=O)(=O)NC5(C)CC5)ccc4N32)cn1 (stereo not drawn) [Example 203, 4-methyl-N-(1-methylcyclopropyl)-1-((6-methylpyridin-3-yl)ethynyl)-5-oxo-1,2,4,5-tetrahydroimidazo[1,2-a]quinazoline-7-sulfonamide] | < 100
CN(C)CC#C[C@@H]1CN=C2N(Cc3cnn(C)c3)C(=O)c3cc(S(=O)(=O)NC4(C)CC4)ccc3N21 [Example 31, (R)-1-(3-(dimethylamino)prop-1-yn-1-yl)-4-((1-methyl-1H-pyrazol-4-yl)methyl)-N-(1-methylcyclopropyl)-5-oxo-1,2,4,5-tetrahydroimidazo[1,2-a]quinazoline-7-sulfonamide] | < 100
CCN1C(=O)c2cc(S(=O)(=O)NC3(C)CC3)ccc2N2C1=NC[C@H]2C#Cc1cnn(C)n1 [Example 187, (R)-4-ethyl-I-((2-methyl-2H-1,2,3-triazol-4-yl)ethynyl)-N-(1-methylcyclopropyl)-5-oxo-1,2,4,5-tetrahydroimidazo[1,2-a]quinazoline-7-sulfonamide] | < 100
[2H]C([2H])(c1cnn(C)c1)N1C(=O)c2cc(S(=O)(=O)NC3(CO)CC3)ccc2N2C1=NC[C@H]2C [Example 237, (R)-N-(1-(hydroxymethyl)cyclopropyl)-1-methyl-4-((1-methyl-1H-pyrazol-4-yl)methyl-d2)-5-oxo-1,2,4,5-tetrahydroimidazo[1,2-a]quinazoline-7-sulfonamide] | 1000 to 10000
Cn1cc(CN2C(=O)c3cc(S(=O)(=O)NC4(C)CC4)ccc3N3C2=NC[C@H]3C#Cc2cnc3cccnn23)cn1 [Example 221, (R)-1-(imidazo[1,2-b]pyridazin-3-ylethynyl)-4-((1-methyl-1H-pyrazol-4-yl)methyl)-N-(1-methylcyclopropyl)-5-oxo-1,2,4,5-tetrahydroimidazo[1,2-a]quinazoline-7-sulfonamide] | < 100
CN1C(=O)c2cc(S(=O)(=O)NC3(C)CC3)ccc2N2C1=NC[C@H]2C#Cc1cnn(C)c1 [Example 130, (R)-4-methyl-1-((1-methyl-1H-pyrazol-4-yl)ethynyl)-N-(1-methylcyclopropyl)-5-oxo-1,2,4,5-tetrahydroimidazo[1,2-a]quinazoline-7-sulfonamide] | < 100
C[C@@H]1CN=C2N(Cc3cnn(C)c3)C(=O)c3cc(S(=O)(=O)NC4(C)CC4)cc(N4C[C@H](C)N[C@@H](C)C4)c3N21 [Example 53, (R)-9-((3S,5S)-3,5-dimethylpiperazin-1-yl)-1-methyl-4-((1-methyl-1H-pyrazol-4-yl)methyl)-N-(1-methylcyclopropyl)-5-oxo-1,2,4,5-tetrahydroimidazo[1,2-a]quinazoline-7-sulfonamide] | 1000 to 10000
C#C[C@@H]1CN=C2N(Cc3cnc(C)o3)C(=O)c3cc(S(=O)(=O)NC4(C)CC4)ccc3N21 [Example 153, (R)-1-ethynyl-N-(1-methylcyclopropyl)-4-((2-methyloxazol-5-yl)methyl)-5-oxo-1,2,4,5-tetrahydroimidazo[1,2-a]quinazoline-7-sulfonamide] | < 100
C#C[C@H]1CN=C2N(Cc3cnn(C)c3)C(=O)c3cc(S(=O)(=O)NC4(C)CC4)cc(Br)c3N21 [Example 94, (S)-9-bromo-1-ethynyl-4-((1-methyl-1H-pyrazol-4-yl)methyl)-N-(1-methylcyclopropyl)-5-oxo-1,2,4,5-tetrahydroimidazo[1,2-a]quinazoline-7-sulfonamide] | 100 to 1000
Cn1cc(CN2C(=O)c3cc(S(=O)(=O)NC4(C)CC4)ccc3N3C2=NC[C@H]3C#CC2(N)CC2)cn1 [Example 124, (R)-1-((1-aminocyclopropyl)ethynyl)-4-((1-methyl-1H-pyrazol-4-yl)methyl)-N-(1-methylcyclopropyl)-5-oxo-1,2,4,5-tetrahydroimidazo[1,2-a]quinazoline-7-sulfonamide] | < 100

Further lines, results first:

IC50 [nM] | SMILES
100 to 1000 | Cn1cc(CN2C(=O)c3cc(S(=O)(=O)NC4(C)CC4)ccc3N3C2=NCC3COc2ccccc2C#N)cn1 (stereo not drawn) [Example 137, 1-((2-cyanophenoxy)methyl)-4-((1-methyl-1H-pyrazol-4-yl)methyl)-N-(1-methylcyclopropyl)-5-oxo-1,2,4,5-tetrahydroimidazo[1,2-a]quinazoline-7-sulfonamide]
< 100 | C#C[C@@H]1[C@H](C)N=C2N(Cc3cnn(C)c3)C(=O)c3cc(S(=O)(=O)NC4(C)CC4)ccc3N21 [Example 173, (1R,2S)-1-ethynyl-2-methyl-4-((1-methyl-1H-pyrazol-4-yl)methyl)-N-(1-methylcyclopropyl)-5-oxo-1,2,4,5-tetrahydroimidazo[1,2-a]quinazoline-7-sulfonamide]
< 100 | [2H]C([2H])(c1cnn(C)c1)N1C(=O)c2cc(S(=O)(=O)NC3(C)CC3)ccc2N2C1=NC[C@H]2CSC [Example 113, (S)-4-((1-methyl-1H-pyrazol-4-yl)methyl-d2)-N-(1-methylcyclopropyl)-1-((methylthio)methyl)-5-oxo-1,2,4,5-tetrahydroimidazo[1,2-a]quinazoline-7-sulfonamide]
< 100 | CN1C(=O)c2cc(S(=O)(=O)NC3(C)CC3)ccc2N2C1=NCC2C#Cc1ccc(C#N)nc1 (stereo not drawn) [Example 202, 1-((6-cyanopyridin-3-yl)ethynyl)-4-methyl-N-(1-methylcyclopropyl)-5-oxo-1,2,4,5-tetrahydroimidazo[1,2-a]quinazoline-7-sulfonamide]
1000 to 10000 | Cn1cc(CN2C(=O)c3cc(S(=O)(=O)NC4(C)CC4)ccc3N3C2=NC[C@H]3C#CC2CNC2)cn1 [Example 89, (R)-1-(azetidin-3-ylethynyl)-4-((1-methyl-1H-pyrazol-4-yl)methyl)-N-(1-methylcyclopropyl)-5-oxo-1,2,4,5-tetrahydroimidazo[1,2-a]quinazoline-7-sulfonamide]
< 100 | [2H]C([2H])(c1cnn(C)c1)N1C(=O)c2cc(S(=O)(=O)NC3(C)CC3)cc(Cl)c2N2C1=NC[C@H]2C#CC1CC1 [Example 16, (R)-9-chloro-1-(cyclopropylethynyl)-4-((1-methyl-1H-pyrazol-4-yl)methyl-d2)-N-(1-methylcyclopropyl)-5-oxo-1,2,4,5-tetrahydroimidazo[1,2-a]quinazoline-7-sulfonamide]
100 to 1000 | [2H]C([2H])(c1cnn(C)c1)N1C(=O)c2cc(S(=O)(=O)NC3(C)CC3)ccc2N2C1=NC[C@@H]2C#C [Example 90, (S)-1-ethynyl-4-((1-methyl-1H-pyrazol-4-yl)methyl-d2)-N-(1-methylcyclopropyl)-5-oxo-1,2,4,5-tetrahydroimidazo[1,2-a]quinazoline-7-sulfonamide]
< 100 | [2H]C([2H])(c1cnn(C)c1)N1C(=O)c2cc(S(=O)(=O)NC3(C)CC3)ccc2N2C1=NC[C@H]2C#CC1=CCOCC1 [Example 282, (R)-1-((3,6-dihydro-2H-pyran-4-yl)ethynyl)-4-((1-methyl-1H-pyrazol-4-yl)methyl-d2)-N-(1-methylcyclopropyl)-5-oxo-1,2,4,5-tetrahydroimidazo[1,2-a]quinazoline-7-sulfonamide]
< 100 | [2H]C([2H])(c1cnn(C)c1)N1C(=O)c2cc(S(=O)(=O)NC3(C)CC3)c(NCC#Cc3cncnc3)cc2N2C1=N[C@H]1CCC[C@H]12 [Example 287, (7aS,10aR)-6-((1-methyl-1H-pyrazol-4-yl)methyl-d2)-N-(1-methylcyclopropyl)-5-oxo-2-((3-(pyrimidin-5-yl)prop-2-yn-1-yl)amino)-6,7a,8,9,10,10a-hexahydro-5H-cyclopenta[4,5]imidazo[1,2-a]quinazoline-3-sulfonamide]
< 100 | COc1ccc2ncc(C#C[C@@H]3CN=C4N(C)C(=O)c5cc(S(=O)(=O)NC6(C)CC6)ccc5N43)n2n1 [Example 181, (R)-1-((6-methoxyimidazo[1,2-b]pyridazin-3-yl)ethynyl)-4-methyl-N-(1-methylcyclopropyl)-5-oxo-1,2,4,5-tetrahydroimidazo[1,2-a]quinazoline-7-sulfonamide]
100 to 1000 | Cn1cc(CN2C(=O)c3cc(S(=O)(=O)NC4(C)CC4)cc(C4=CCCC4)c3N3CCN=C23)cn1 [Example 26, 9-(cyclopent-1-en-1-yl)-4-((1-methyl-1H-pyrazol-4-yl)methyl)-N-(1-methylcyclopropyl)-5-oxo-1,2,4,5-tetrahydroimidazo[1,2-a]quinazoline-7-sulfonamide]
< 100 | CCN1C(=O)c2cc(S(=O)(=O)NC3(C)CC3)ccc2N2C1=NC[C@H]2C#Cc1cc(C2CC2)nn1C [Example 228, (R)-1-((3-cyclopropyl-1-methyl-1H-pyrazol-5-yl)ethynyl)-4-ethyl-N-(1-methylcyclopropyl)-5-oxo-1,2,4,5-tetrahydroimidazo[1,2-a]quinazoline-7-sulfonamide]
100 to 1000 | Cn1cc(CN2C(=O)c3cc(S(=O)(=O)NC4(C)CC4)ccc3N3C2=NC[C@H]3C#C[C@H]2CCCN2)cn1 [Example 248, (R)-4-((1-methyl-1H-pyrazol-4-yl)methyl)-N-(1-methylcyclopropyl)-5-oxo-1-(((R)-pyrrolidin-2-yl)ethynyl)-1,2,4,5-tetrahydroimidazo[1,2-a]quinazoline-7-sulfonamide]
